Measurements: US20230406885A1, “CYCLIC PEPTIDES FOR TRAPPING INTERLEUKIN-1 BETA” (MERCK SHARP & DOHME LLC, priority 2022, published 2023)
*1 amine or outer side, *2 acyl side, *3 side chain or, on linkers, in order; H or OH if unused. Where a SMILES comes first, the peptide text is derived from it. [ ]: non-standard residue; d: D form. Phe(4-(4-Ac-piperazinyl)) = CC(=O)N1CCN(c2ccc(C[C@H](N)C(=O)O)cc2)CC1; Trp(4-Cl)(βS-Me) = C[C@@H](c1c[nH]c2cccc(Cl)c12)[C@H](N)C(=O)O; Trp(βS-Me,4-F) = C[C@@H](c1c[nH]c2cccc(F)c12)[C@H](N)C(=O)O; Bip(4'-COOH) = N[C@@H](Cc1ccc(-c2ccc(C(=O)O)cc2)cc1)C(=O)O; 1Nal(3S-Me) = C[C@@H](c1cccc2ccccc12)[C@H](N)C(=O)O; Ala(indolin-1-yl) = N[C@@H](CN1CCc2ccccc21)C(=O)O; X8 = O=C([C@H](CCc1cccc(C(F)(F)F)c1)N[*:1])[*:2]; Phe(4-COOH) = N[C@@H](Cc1ccc(C(=O)O)cc1)C(=O)O; h3Pal(5-CN) = N#Cc1cncc(CC[C@H](N)C(=O)O)c1; Pro(4R-NH2) = N[C@H]1CN[C@H](C(=O)O)C1; 1Nal = N[C@@H](Cc1cccc2ccccc12)C(=O)O; AEF = NCCOc1ccc(C[C@H](N)C(=O)O)cc1; hTyr = N[C@@H](CCc1ccc(O)cc1)C(=O)O; hCha = N[C@@H](CCC1CCCCC1)C(=O)O; 4Pal = N[C@@H](Cc1ccncc1)C(=O)O; hLys = NCCCCC[C@H](N)C(=O)O; dDab = NCC[C@@H](N)C(=O)O; Orn = NCCC[C@H](N)C(=O)O; dNMeA = CN[C@H](C)C(=O)O; Dab = NCC[C@H](N)C(=O)O; Dap = NC[C@H](N)C(=O)O; Aib = CC(C)(N)C(=O)O

The compounds below were run against T1, Recombinant human IL-1β (Homo sapiens, UniProt P01584) (assay: IL-6 assay in MRC5 cells: inhibition of IL-1β induced IL-6 secretion (AlphaLISA)). Settings: inhibition of IL-1β induced IL-6 secretion in MRC5 cells; IL-1β pre-incubated 1 hour with compound; read-out: MRC5 IC50.
T1 construct: purchased BioLegend 579404
T1 sequence (P01584 117-269): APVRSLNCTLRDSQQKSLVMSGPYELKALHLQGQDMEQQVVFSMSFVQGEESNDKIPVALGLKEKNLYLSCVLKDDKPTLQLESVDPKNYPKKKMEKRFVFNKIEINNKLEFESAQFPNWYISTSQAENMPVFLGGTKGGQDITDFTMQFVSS
Assay type: cell-based
How it was run: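 IL-1β at 2×EC80 in seeding medium (EMEM, 0.025% BSA) preincubated 1 h at ambient temperature with compound, then 3000 MRC5 cells/well added and incubated overnight at 37 °C, 5% CO2. IL-6 in conditioned medium quantified by AlphaLISA; IC50 from 4-parameter logistic fit.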

IC50 [nM]	Structure (SMILES)
0.492	CC(=O)NCCOc1ccc(C[C@@H]2NC(=O)[C@H](CCc3ccc(O)cc3)NC(=O)[C@@H](C)NC(=O)[C@H](CCN)NC(=O)[C@H](Cc3c[nH]c4ccccc34)NC(=O)[C@H](Cc3ccc(-c4ccc(C(=O)O)cc4)cc3)NC(=O)CNC(=O)[C@@H](C)N(C)C(=O)[C@H](CC(=O)O)NC(=O)[C@H]([C@@H](C)c3cccc4ccccc34)NC(=O)[C@@H]3C[C@@H](N)CN3C(=O)CNC(=O)[C@H](Cc3ccc(C(=O)O)cc3)NC(=O)[C@H](Cc3c[nH]c4ccccc34)NC2=O)cc1 [Example 116] (cyclo([AEF](Ac)W[Phe(4-COOH)]G[Pro(4R-NH2)][1Nal(3S-Me)]D[dNMeA]G[Bip(4'-COOH)]W[Dab][dA][hTyr]))
0.0775	CC(=O)NCCOc1ccc(C[C@@H]2NC(=O)[C@H](CCc3ccc(O)cc3)NC(=O)[C@@H](C)N(C)C(=O)CNC(=O)[C@H](CCCCN)NC(=O)[C@H](Cc3ccc(-c4ccc(C(=O)O)cc4)cc3)NC(=O)CNC(=O)[C@@H](C)N(C)C(=O)[C@H](CC(=O)O)NC(=O)[C@H]([C@@H](C)c3cccc4ccccc34)NC(=O)[C@@H]3C[C@@H](N)CN3C(=O)CNC(=O)[C@H](Cc3ccc(C(=O)O)cc3)NC(=O)[C@H](Cc3c[nH]c4ccccc34)NC2=O)cc1 [Example 109] (cyclo([AEF](Ac)W[Phe(4-COOH)]G[Pro(4R-NH2)][1Nal(3S-Me)]D[dNMeA]G[Bip(4'-COOH)]KG[dNMeA][hTyr]))
0.0418	C[C@@H]1C(=O)NCC(=O)N[C@@H](Cc2ccc(-c3ccc(C(=O)O)cc3)cc2)C(=O)N[C@@H](Cc2c[nH]c3ccccc23)C(=O)N[C@@H](CN)C(=O)N[C@H](C)C(=O)N[C@@H](CCc2ccc(O)cc2)C(=O)N[C@@H](Cc2ccc(-c3ccc(C(=O)O)cc3)cc2)C(=O)N[C@@H](Cc2c[nH]c3ccccc23)C(=O)N[C@@H](Cc2ccc(C(=O)O)cc2)C(=O)NCC(=O)N2C[C@H](N)C[C@H]2C(=O)N[C@@H]([C@@H](C)c2c[nH]c3cccc(Cl)c23)C(=O)N[C@@H](CC(=O)O)C(=O)N1C [Example 53] (cyclo([Bip(4'-COOH)]W[Phe(4-COOH)]G[Pro(4R-NH2)][Trp(4-Cl)(βS-Me)]D[dNMeA]G[Bip(4'-COOH)]W[Dap][dA][hTyr]))
0.041	CC(=O)NCCOc1ccc(C[C@@H]2NC(=O)[C@H](CCc3cccc(C(F)(F)F)c3)NC(=O)[C@@H](C)NC(=O)[C@H](CO)NC(=O)[C@H](Cc3ccncc3)NC(=O)[C@H](Cc3ccc(-c4ccc(C(=O)O)cc4)cc3)NC(=O)CNC(=O)[C@@H](C)N(C)C(=O)[C@H](CC(=O)O)NC(=O)[C@H]([C@@H](C)c3cccc4ccccc34)NC(=O)[C@@H]3C[C@@H](N)CN3C(=O)CNC(=O)[C@H](Cc3ccc(C(=O)O)cc3)NC(=O)[C@H](Cc3c[nH]c4ccccc34)NC2=O)cc1 [Example 104] (cyclo([AEF](Ac)W[Phe(4-COOH)]G[Pro(4R-NH2)][1Nal(3S-Me)]D[dNMeA]G[Bip(4'-COOH)][4Pal]S[dA][X8]))
0.0873	C[C@@H]1C(=O)NCC(=O)N[C@@H](Cc2ccc(-c3ccc(C(=O)O)cc3)cc2)C(=O)N[C@@H](Cc2c[nH]c3ccccc23)C(=O)NCC(=O)N[C@H](CCN)C(=O)N[C@@H](CCc2ccc(O)cc2)C(=O)N[C@@H](Cc2ccc(-c3ccc(C(=O)O)cc3)cc2)C(=O)N[C@@H](Cc2c[nH]c3ccccc23)C(=O)N[C@@H](Cc2ccc(C(=O)O)cc2)C(=O)NCC(=O)N2C[C@H](N)C[C@H]2C(=O)N[C@@H]([C@@H](C)c2c[nH]c3cccc(Cl)c23)C(=O)N[C@@H](CCC(N)=O)C(=O)N1C [Example 57] (cyclo([Bip(4'-COOH)]W[Phe(4-COOH)]G[Pro(4R-NH2)][Trp(4-Cl)(βS-Me)]Q[dNMeA]G[Bip(4'-COOH)]WG[dDab][hTyr]))

The next lines start with the compound.

Structure (SMILES)	IC50 [nM]
C[C@@H]1C(=O)NCC(=O)N[C@@H](Cc2ccc(-c3ccc(C(=O)O)cc3)cc2)C(=O)N[C@@H](Cc2ccncc2)C(=O)N[C@@H](CN)C(=O)N[C@H](C)C(=O)N[C@@H](CCc2ccc(O)cc2)C(=O)N[C@@H](Cc2ccc(-c3ccc(C(=O)O)cc3)cc2)C(=O)N[C@@H](Cc2c[nH]c3ccccc23)C(=O)N[C@@H](Cc2ccc(C(=O)O)cc2)C(=O)NCC(=O)N2C[C@H](N)C[C@H]2C(=O)N[C@@H]([C@@H](C)c2cccc3ccccc23)C(=O)N[C@@H](CC(=O)O)C(=O)N1C [Example 22] (cyclo([Bip(4'-COOH)]W[Phe(4-COOH)]G[Pro(4R-NH2)][1Nal(3S-Me)]D[dNMeA]G[Bip(4'-COOH)][4Pal][Dap][dA][hTyr]))	0.0325
C[C@@H]1C(=O)NCC(=O)N[C@@H](Cc2ccc(-c3ccc(C(=O)O)cc3)cc2)C(=O)N[C@@H](Cc2cccc3ccccc23)C(=O)N[C@@H](CN)C(=O)NC(C)(C)C(=O)N[C@@H](CCc2cncc(C#N)c2)C(=O)N[C@@H](Cc2ccc(-c3ccc(C(=O)O)cc3)cc2)C(=O)N[C@@H](Cc2c[nH]c3ccccc23)C(=O)N[C@@H](Cc2ccc(C(=O)O)cc2)C(=O)NCC(=O)N2C[C@H](N)C[C@H]2C(=O)N[C@@H]([C@@H](C)c2cccc3ccccc23)C(=O)N[C@@H](CC(=O)O)C(=O)N1C [Example 18] (cyclo([Bip(4'-COOH)]W[Phe(4-COOH)]G[Pro(4R-NH2)][1Nal(3S-Me)]D[dNMeA]G[Bip(4'-COOH)][1Nal][Dap][Aib][h3Pal(5-CN)]))	0.0885
C[C@@H]1C(=O)NCC(=O)N[C@@H](Cc2ccc(-c3ccc(C(=O)O)cc3)cc2)C(=O)N[C@@H](Cc2cccc3ccccc23)C(=O)N[C@@H](CCCN)C(=O)NC(C)(C)C(=O)NCC(=O)N[C@@H](Cc2ccc(-c3ccc(C(=O)O)cc3)cc2)C(=O)N[C@@H](Cc2c[nH]c3ccccc23)C(=O)N[C@@H](Cc2ccc(C(=O)O)cc2)C(=O)NCC(=O)N2C[C@H](N)C[C@H]2C(=O)N[C@@H]([C@@H](C)c2c[nH]c3cccc(Cl)c23)C(=O)N[C@@H](CC(=O)O)C(=O)N1C [Example 37] (cyclo([Bip(4'-COOH)]W[Phe(4-COOH)]G[Pro(4R-NH2)][Trp(4-Cl)(βS-Me)]D[dNMeA]G[Bip(4'-COOH)][1Nal][Orn][Aib]G))	0.103
CC(C)C[C@@H]1NC(=O)[C@H](CCCCCN)NC(=O)[C@H](Cc2ccc(-c3ccc(C(=O)O)cc3)cc2)NC(=O)CNC(=O)[C@@H](C)N(C)C(=O)[C@H](CC(=O)O)NC(=O)[C@H]([C@@H](C)c2c[nH]c3cccc(F)c23)NC(=O)[C@@H]2C[C@@H](N)CN2C(=O)CNC(=O)[C@H](Cc2ccc(C(=O)O)cc2)NC(=O)[C@H](Cc2c[nH]c3ccccc23)NC(=O)[C@H](Cc2ccc(-c3ccc(C(=O)O)cc3)cc2)NC(=O)[C@H](CCc2ccc(O)cc2)NC(=O)[C@@H](C)NC1=O [Example 62] (cyclo([Bip(4'-COOH)]W[Phe(4-COOH)]G[Pro(4R-NH2)][Trp(βS-Me,4-F)]D[dNMeA]G[Bip(4'-COOH)][hLys]L[dA][hTyr]))	0.283

Same assay, conditions: inhibition of IL-1β induced IL-6 secretion in MRC5 cells; read-out: MRC5 IC50

IC50 [nM]	Structure (SMILES)
0.133	CC(=O)NCCOc1ccc(C[C@@H]2NC(=O)[C@H](CCc3ccc(O)cc3)NC(=O)[C@@H](CCN)NC(=O)[C@H](CO)NC(=O)[C@H](CCCCN)NC(=O)[C@H](Cc3ccc(-c4ccc(C(=O)O)cc4)cc3)NC(=O)CNC(=O)[C@@H](C)N(C)C(=O)[C@H](CC(=O)O)NC(=O)[C@H]([C@@H](C)c3c[nH]c4cccc(Cl)c34)NC(=O)[C@@H]3C[C@@H](N)CN3C(=O)CNC(=O)[C@H](Cc3ccc(C(=O)O)cc3)NC(=O)[C@H](Cc3c[nH]c4ccccc34)NC2=O)cc1 [Example 139] (cyclo([AEF](Ac)W[Phe(4-COOH)]G[Pro(4R-NH2)][Trp(4-Cl)(βS-Me)]D[dNMeA]G[Bip(4'-COOH)]KS[dDab][hTyr]))
0.0748	CC(=O)NCCOc1ccc(C[C@@H]2NC(=O)[C@H](CCc3ccc(O)cc3)NC(=O)[C@@H](C)NC(=O)[C@H](CN)NC(=O)[C@H](Cc3c[nH]c4ccccc34)NC(=O)[C@H](Cc3ccc(-c4ccc(C(=O)O)cc4)cc3)NC(=O)CNC(=O)[C@@H](C)N(C)C(=O)[C@H](CC(=O)O)NC(=O)[C@H]([C@@H](C)c3c[nH]c4cccc(Cl)c34)NC(=O)[C@@H]3C[C@@H](N)CN3C(=O)CNC(=O)[C@H](Cc3ccc(C(=O)O)cc3)NC(=O)[C@H](Cc3c[nH]c4ccccc34)NC2=O)cc1 [Example 145] (cyclo([AEF](Ac)W[Phe(4-COOH)]G[Pro(4R-NH2)][Trp(4-Cl)(βS-Me)]D[dNMeA]G[Bip(4'-COOH)]W[Dap][dA][hTyr]))

Second part, the compound before the results:

Structure (SMILES)	IC50 [nM]
CC(=O)N1CCN(c2ccc(C[C@@H]3NC(=O)[C@H](CCc4ccc(O)cc4)NC(=O)[C@@H](CCN)NC(=O)CNC(=O)[C@H](CN4CCc5ccccc54)NC(=O)[C@H](Cc4ccc(-c5ccc(C(=O)O)cc5)cc4)NC(=O)CNC(=O)[C@@H](C)N(C)C(=O)[C@H](CC(=O)O)NC(=O)[C@H]([C@@H](C)c4cccc5ccccc45)NC(=O)[C@@H]4C[C@@H](N)CN4C(=O)CNC(=O)[C@H](Cc4ccc(C(=O)O)cc4)NC(=O)[C@H](Cc4c[nH]c5ccccc45)NC3=O)cc2)CC1 [Example 198] (cyclo([Phe(4-(4-Ac-piperazinyl))]W[Phe(4-COOH)]G[Pro(4R-NH2)][1Nal(3S-Me)]D[dNMeA]G[Bip(4'-COOH)][Ala(indolin-1-yl)]G[dDab][hTyr]))	0.021
CC(=O)N1CCN(c2ccc(C[C@@H]3NC(=O)[C@H](CCC4CCCCC4)NC(=O)[C@@H](C)NC(=O)[C@H](CC(C)C)NC(=O)[C@H](CCCN)NC(=O)[C@H](Cc4ccc(-c5ccc(C(=O)O)cc5)cc4)NC(=O)CNC(=O)[C@@H](C)N(C)C(=O)[C@H](CC(=O)O)NC(=O)[C@H]([C@@H](C)c4cccc5ccccc45)NC(=O)[C@@H]4C[C@@H](N)CN4C(=O)CNC(=O)[C@H](Cc4ccc(C(=O)O)cc4)NC(=O)[C@H](Cc4c[nH]c5ccccc45)NC3=O)cc2)CC1 [Example 209] (cyclo([Phe(4-(4-Ac-piperazinyl))]W[Phe(4-COOH)]G[Pro(4R-NH2)][1Nal(3S-Me)]D[dNMeA]G[Bip(4'-COOH)][Orn]L[dA][hCha]))	0.009
